Reference: patent publication US11376264B2, “Use of bromodomain-containing protein 9 antagonists in combination with vitamin D receptor agonists in diabetes treatment” (Salk Institute for Biological Studies, priority 2017, dated 2022)

Test: In vivo pharmacokinetic study of iBRD9 (plasma, LC-MS)
Conditions: FIG. 12J, n=3
Description: An internal standard of d4-succinate was added to all samples prior to analysis. […] of methanol containing 100 pmol of d4-succinate was added to 50 uL plasma samples and vortexed for 1 min. The samples were then centrifuged at 17.000× g for 10 min at 4° C. After drying the supernatant via SpeedVac, the extract was dissolved in H2O ([…]) and […] was subjected to liquid chromatography mass spectrometry (LC-MS). Compound i-BRD9 was measured using a TSQ Quantiva mass spectrometer (Thermo) and Dionex Ultimate 3000 (Thermo) fitted with a Gemini C18 HPLC column ([…]; 4.6 mm×50 mm, Phenomenex). LC solvents used were: solvent A, 0.1% formic acid in water; solvent B, 0.1% formic acid in acetonitrile. Separations took place over 16 min with a flow rate of 0.4 mL/min and consisted of the following steps: 5 to 50% solvent B over 9 min, 50 to 80% B over 1 min, 80% B for 1 min, 80 to 5% B over 0.1 min, and 5% B for 5 min. MS analyses were performed using electrospray ionization (ESI) in positive ion mode for i-BRD9 and negative ion mode for d4-succinate. Positive and negative mode source parameters were as follows: spray voltage 3.5 kV, ion transfer tube temperature of 325° C., and a vaporizer temperature of 275° C. Multiple reaction monitoring transitions for target compound and internal standard are shown in (Table 2).

## CCn1cc(-c2cccc(C(F)(F)F)c2)c2sc(C(=N)NC3CCS(=O)(=O)CC3)cc2c1=O [iBRD9]
  maximum plasma iBRD9 concentration: ~750 nM
